{"source": "a melting point compilation (Tetko et al.; mined from patent text by program, amines drawn as free bases though some values may be those of a salt)"}
{"units": {"melting point": "°C"}}
{"smiles": "CC(C)c1ccc2c(c1)C=C(/C=C/C=C/C=C/C(=O)O)CO2", "melting point": "244 to 246"}
{"smiles": "COc1ccc(-n2c3c(c(=O)c4cccnc42)CC(C)O3)cc1", "note": "(stereo not given)", "melting point": "194 to 196"}
{"smiles": "O=C1Cc2cc(Cl)ccc2N1O", "melting point": "202 to 208"}
{"smiles": "CN1C(=O)C(C(=O)Nc2ccc(Oc3nc4ccc(Cl)cc4s3)cc2)C(=O)N(C)C1=S", "melting point": "213 to 215"}
{"smiles": "CCC(=O)CCCCCCCc1ccc(O)c(O)c1", "melting point": "76 to 78"}
{"smiles": "CC(=O)Nc1ccc2c(c1)nc(/C=C/c1ccccc1)n2-c1ccccn1", "melting point": "105 to 107"}
{"smiles": "O=C1OCCCC1=Cc1ccccc1OCC(O)CN1CCC(c2ccc3ccccc3c2)CC1", "note": "(stereo not given)", "melting point": "142 to 144"}
{"smiles": "COc1cccc2ccc(Cl)nc12", "melting point": "90 to 92"}
{"smiles": "CC(CCCNc1ccccc1)C1CC=C2C3=C(CCC21C)C1(C)CCC(O)C(C)(C)C1CC3", "note": "(stereo not given)", "melting point": "178 to 180"}
{"smiles": "FC(F)(F)c1ccc(/C=C/C2=CCN(Cc3c[nH]c4ncccc34)CC2)cc1", "melting point": "203 to 205"}
{"smiles": "CN1C(=O)CN=C(c2ccccc2F)c2cc(C#N)ccc21", "melting point": 177}
{"smiles": "CCOC(=O)[C@H](Cc1ccc(Nc2nccc3ccncc23)cc1)NC1=CC(=O)C12CCOCC2", "melting point": 112}
{"smiles": "CC(=O)Oc1cc(C)cc(C(=O)Cl)c1C", "melting point": "52 to 54"}
{"smiles": "Cc1cc(C)c(S(=O)(=O)N(C)C)cc1[N+](=O)[O-]", "melting point": 113}
{"smiles": "COc1ccc(CSc2nnc(-c3ccc4[nH]ncc4c3)o2)cc1C#N", "melting point": "192 to 193"}
{"smiles": "CN(CCOc1ccc(C=C2SC(=O)NC2=O)cc1)C(=O)c1ccccc1", "melting point": "178 to 180"}
{"smiles": "O=C(O)CC(=O)Nc1ccc2c(c1)c(=O)[nH]c(=O)n2CCCCN1CCC(OC(c2ccccc2)c2ccccc2)CC1", "melting point": "166 to 168"}
{"smiles": "Cc1ccc(S(=O)(=O)OCc2c([N+](=O)[O-])cccc2[N+](=O)[O-])cc1", "melting point": "98 to 99"}
{"smiles": "COCCN1CCN(CCc2ccc(Nc3ncc4c(n3)-c3ccccc3C(c3ccccc3)C4)cc2)CC1", "note": "(stereo not given)", "melting point": "52 to 54"}
{"smiles": "CCCCCS(=O)(=O)NC(=O)CCc1ccc(OCCOCCOC)cc1Oc1ncc(C(F)(F)F)cc1Cl", "melting point": "76 to 77.5"}
{"smiles": "Cc1cc(C)cc(SN2C(=O)CCC2=O)c1", "melting point": "131 to 134"}
{"smiles": "CC(C)(C)C(=O)Nc1ccc(F)c(Oc2ccc(C3CC(=O)NC(=O)C3)cc2)c1F", "melting point": 172}
{"smiles": "C1CNCCN2CCNCCNCCN(CCN1)CCOCCOCC2", "melting point": 75}
{"smiles": "CNc1ccc2cc(Br)ccc2c1[N+](=O)[O-]", "melting point": "169 to 170"}
{"smiles": "CCc1n[nH]c(CC)c1CCCCCCOc1cc(Cl)c(OC)cc1Cl", "melting point": "148 to 150"}
{"smiles": "Oc1ccc(O)c2c1CC=CC2", "melting point": "208 to 211"}
{"smiles": "O=C(O)CCNC(=O)C(=Cc1ccc(C(F)(F)F)cc1)CS", "melting point": 108}
{"smiles": "Brc1cccc(OCc2ccc3ccccc3n2)c1", "melting point": "79 to 81"}
{"smiles": "CCOC(=O)[C@H](CCc1ccccc1)N[C@@H](C)C(=O)N1CC2(C[C@H]1C(=O)O)SCCS2", "melting point": "124 to 126"}
{"smiles": "COc1cc(C(F)(F)F)nn1-c1ccc(NC(=O)c2snnc2C)cc1", "melting point": "159 to 160"}
{"smiles": "Cc1ccc(C)c(-c2cc(C#N)c(NC(=O)[C@@H]3C[C@@H]4CC[C@H]3C4)s2)c1", "melting point": "168 to 169"}
{"smiles": "CCN(CC)S(=O)(=O)c1cc(Cl)c(Cl)c(Cl)c1SCSC#N", "melting point": "83 to 85"}
{"smiles": "Cc1cccc(NC(=O)NC2N=C(C(C)C)c3cccc(C)c3N(CC(=O)N3CC4CCC(CC4)C3)C2=O)c1", "note": "(stereo not given)", "melting point": "190 to 193"}
{"smiles": "O=C(Nc1cc(-c2ccnc3c(C(=O)c4cccs4)cnn23)ccc1F)c1ccccc1Cl", "melting point": "166 to 168"}
{"smiles": "COc1cc2ncnc(N3CCC(C(C)(O)CN4CCC(C)NS4(=O)=O)CC3)c2cc1OC", "note": "(stereo not given)", "melting point": "186 to 188"}
{"smiles": "O=C(Nc1ccc(Cl)c(C(F)(F)F)c1)Nc1ccc(-c2ccc(C(F)(F)F)cc2)cc1-c1nnn[nH]1", "melting point": "226 to 228"}
{"smiles": "COc1cc(Br)c(OC)c(CO)c1", "melting point": "59 to 60"}
{"smiles": "O=[N+]([O-])c1cccc2cc(-c3ccccc3)cnc12", "melting point": "112 to 114"}
{"smiles": "CCOP(=O)(/C=C/c1cn(-c2ccccc2)nc1OCc1ccc(OCc2cn(-c3ccccn3)nc2C)c(OC)c1)OCC", "melting point": "103 to 104"}
{"smiles": "CCOC(=O)CC(=O)c1cc(C(CC(C)C)NC(=O)Cc2ccc(NC(=O)Nc3ccccc3Cl)cc2)no1", "note": "(stereo not given)", "melting point": "150 to 152"}
{"smiles": "CCOC(=O)c1nn(-c2cccc(C(F)(F)F)c2)c2c1CCCC2", "melting point": "77 to 78"}
{"smiles": "CNC1([C@@H]2CCN(c3cc(N)c4c(=O)c(C(=O)O)cn([C@@H]5C[C@@H]5F)c4c3C)C2)CC1", "melting point": "129 to 131"}
{"smiles": "O=C(O)COc1cccc(-c2c3ccccc3c(Br)c3sc4ccccc4c23)c1", "melting point": "180 to 181"}
{"smiles": "CN1C(=O)CN(C(N)=O)C(c2ccccc2)c2cc(Cl)ccc21", "note": "(stereo not given)", "melting point": "214 to 217"}
{"smiles": "COC(=O)c1ccc(CO)cc1O", "melting point": "77 to 78"}
{"smiles": "Nc1ccc([N+](=O)[O-])c(NC(=O)c2ccccc2)c1", "melting point": "203 to 207"}
{"smiles": "CC1N=C(c2ccccc2Cl)c2c(ccc(NC(=O)NC3CCC(O)CC3)c2Br)N(C)C1=O", "note": "(stereo not given)", "melting point": "226 to 227"}
{"smiles": "COc1cn(C)cc(-c2cccc(C(F)(F)F)c2)c1=O", "melting point": "173 to 175"}
{"smiles": "CCCCCCCCCCCCCCCC1=CC=CC(=O)C12CO2", "note": "(stereo not given)", "melting point": "45 to 47"}
{"smiles": "CCCCCCCCCCCCCCCCCCOC(=O)P(=O)(O)O", "melting point": "81 to 82"}
{"smiles": "CCC1(CC)NC(=O)Oc2ccccc21", "melting point": "160 to 162"}
{"smiles": "O=C(Nc1ccc(Cl)cc1)c1ccccc1Cl", "melting point": "93.7 to 95.1"}
{"smiles": "Fc1cc(C(F)(F)F)ccc1/C=C/c1nc(COc2ccc(-c3nc(Cn4ccnc4)co3)cc2)co1", "melting point": "150 to 153"}
{"smiles": "c1ccc(COc2ccc3c(C45CC6CC(CC(C6)C4)C5)noc3c2)cc1", "melting point": 132}
{"smiles": "COc1cc(CBr)c(OC)cc1Cl", "melting point": "85 to 88"}
{"smiles": "CCC(CN1CCCC1)C(=O)c1cc(-c2ccccc2)no1", "note": "(stereo not given)", "melting point": "68 to 69"}
{"smiles": "CC12CC(F)C3c4ccc(O)cc4CC(CCCCCN4CCCC4CSCCCC(F)(F)C(F)(F)F)C3C1CCC2O", "note": "(stereo not given)", "melting point": "174 to 176"}
{"smiles": "c1ccc2c(c1)OCC(CN1CCC(CNc3nc4cnccc4s3)CC1)O2", "note": "(stereo not given)", "melting point": 147}
{"smiles": "Cc1cc(C)cc(Nc2cccc3c2OC(CN)C3)c1", "note": "(stereo not given)", "melting point": "> 250"}
{"smiles": "Cc1cc(C[C@@H](NC(=O)c2cccc3c2C=CCCC3)[C@@H](O)c2ccc(F)cc2)cc(OC(F)(F)C(F)F)c1", "note": "(racemic)", "melting point": "175 to 176"}
{"smiles": "CCNC(=O)Nc1ccc(Oc2ccc3nc(COc4ccc(CC5SC(=O)NC5=O)cc4)n(C)c3c2)cc1", "note": "(stereo not given)", "melting point": "227 to 230"}
{"smiles": "CCCCCCCCCCCCCCCCCCNC(=O)OCC(CN(C(C)=O)S(=O)(=O)CCCI)NC(C)=O", "note": "(stereo not given)", "melting point": "118 to 119"}
{"smiles": "Cc1cc(-c2cccc(C(=O)CC(=O)OC(C)(C)C)c2)on1", "melting point": "50 to 56"}
{"smiles": "O=C(Nc1ccc(-n2nc(-c3ccoc3)cc2Cl)cc1)c1ccncc1F", "melting point": "165 to 166"}
{"smiles": "NS(=O)(=O)C(Br)(Br)S(=O)(=O)c1ccc(Br)cc1", "melting point": 192}
{"smiles": "COc1ccc(C(=O)O)c2c1oc1ccccc12", "melting point": 280}
{"smiles": "N#Cc1ccc([C@H]2CC[C@H](CO)CC2)cc1", "melting point": 108}
{"smiles": "Cc1cccc(Nc2cc(-c3c(-c4cccc(C)c4)nc4cccnn34)ccn2)c1", "melting point": "195 to 196"}
{"smiles": "O=C1CCC(N2Cc3c(OCc4ccc5nc(CN6CCOCC6)cn5c4)cccc3C2=O)C(=O)N1", "note": "(stereo not given)", "melting point": "278 to 280"}
{"smiles": "Oc1ccc2c(c1)CCCC(c1ccccc1)=C2c1ccc(OCCCCCCCl)cc1", "melting point": 193}
{"smiles": "CC1COCc2nc3c(N)nc4c(c3n21)CCCC4", "note": "(stereo not given)", "melting point": "209 to 211"}
{"smiles": "COCCOc1ccc([N+](=O)[O-])cc1I", "melting point": "35 to 36"}
{"smiles": "CCn1nc2c(N)nc3ccccc3c2c1CC1(F)CCN(S(C)(=O)=O)CC1", "melting point": "269 to 271"}
{"smiles": "Cc1ccc2c(C(C)C(=O)O)cc(=O)[nH]c2c1", "note": "(stereo not given)", "melting point": "209 to 210"}
{"smiles": "Cc1ccc(OCCOc2ccc(C(=O)C(=O)O)cc2)cc1", "melting point": "135 to 136"}
{"smiles": "COC(=O)C1CCN(Cc2ccc(-c3ccc4c(Nc5ccc(Sc6nccn6C)c(Cl)c5)c(C#N)cnc4c3)nc2)CC1", "melting point": "135 to 137"}
{"smiles": "CCn1c(=S)sc2c(=N)n(NC(=O)c3ccco3)cnc21", "melting point": 226}
{"smiles": "COc1ccc(NCCCOc2ccc3cc(OCCCNc4ccc(OC)cc4)ccc3c2)cc1", "melting point": 129}
{"smiles": "O=C(O)c1ccc(O)c(Cl)c1Cl", "melting point": 200}
{"smiles": "Nc1cnc(-c2cc(Cl)ccc2Cl)c(N)n1", "melting point": "159 to 160"}
{"smiles": "Nc1ccc2c(c1-c1ccccc1)CCC2", "melting point": "73 to 75"}
{"smiles": "O=C(O)Cc1cccc(C(=O)c2ccccc2)c1[N+](=O)[O-]", "melting point": "160 to 162"}
{"smiles": "CC(C)(C)OC(=O)N1CC2CN(Cc3ccccc3)CC(C1)O2", "melting point": "100 to 102"}
{"smiles": "COc1ccc(N2CCOCC2)c2sc(C#N)nc12", "melting point": "145 to 147"}
{"smiles": "CCN1c2ncc(CCc3cncnc3)cc2C(=O)N(C)c2cccnc21", "melting point": "142 to 143"}
{"smiles": "OC1(c2ccc(Cl)c(C(F)(F)F)c2)CCN(CCCc2nnc3n2CCCCC3)CC1", "melting point": 151}
{"smiles": "CC1(C)Oc2ccsc2C(NC(=O)c2ccncc2)C1O", "note": "(stereo not given)", "melting point": "223 to 234"}
{"smiles": "Cc1cccc2cc(C(=O)N(C)C)c(C=CNc3ccc(F)cc3)nc12", "melting point": "172 to 173"}
{"smiles": "CC(=O)Nc1c(C)ccc([N+](=O)[O-])c1C", "melting point": "171 to 173"}
{"smiles": "c1ccc(C(c2ccccc2)(c2ccccc2)N2CCCCC2)cc1", "melting point": "156 to 158"}
{"smiles": "COC(=O)c1cc(OCCCOc2ccc(-c3ccccc3)cc2)cc(OCCCOc2ccc(-c3ccccc3)cc2)c1", "melting point": "142 to 145"}
{"smiles": "Nc1ccc(C(=O)c2ccccn2)cc1[N+](=O)[O-]", "melting point": "186 to 187"}
{"smiles": "Cc1nsc(-n2cc(C(=O)O)c(=O)c3cc(F)c(N4CCCC4)nc32)n1", "melting point": "> 300"}
{"smiles": "CC(C)C1NC(NC(=O)CCC2CCCCC2)C(=O)N(C)c2ccccc21", "note": "(stereo not given)", "melting point": "114 to 115"}
{"smiles": "CCc1ccc(NC(=O)c2cc(C(C)(C)C)ccc2S)cc1", "melting point": "150 to 151"}
{"smiles": "O=C(O)COc1ccc(F)cc1C(=O)NCc1ccc(Br)cc1F", "melting point": "145 to 146"}
{"smiles": "COc1cc(C(=O)c2cnc3ccccc3c2)ccc1OCc1ccccc1", "melting point": "110 to 111"}
{"smiles": "COc1ccc(C(=C/C=C/C(=O)Nc2ccc(Cc3cccnc3)cc2)c2ccc(OC)cc2)cc1", "melting point": "185 to 186"}
{"smiles": "CC(CO)C1CCC2C3CCC4=C(N)C(=O)CCC4(C)C3CCC12C", "note": "(stereo not given)", "melting point": "180 to 185"}
{"smiles": "COc1cc(OC)c2cc(-c3ccc([N+](=O)[O-])cc3)oc2c1", "melting point": "192 to 193"}
